Results on 15 compounds are retold here after ChEMBL document CHEMBL5620416, “Design, synthesis and development of a dual inhibitor of Topoisomerase 1 and poly (ADP-ribose) polymerase 1 for efficient killing of cancer cells” (Eur J Med Chem, 2023).

The source made the active and inactive calls. The rule behind the calls is not given here. Where only a bound is given, the exact number is not on record here.

Test [1] concerns HCT-116. As to the kind of experiment: Cytotoxicity against human HCT-116 cells incubated for 72 hrs by MTT assay. It counts as functional, cell-based. To be noted: HCT-116, 72 h.
Test [2] relates to MIA PaCa-2. As to the kind of experiment: Cytotoxicity against human MIA PaCa-2 cells incubated for 72 hrs by MTT assay. It counts as functional, cell-based. The following applies: MIA PaCa-2, 72 h.
Test [3] has as its system PANC-1. Kind of test: Cytotoxicity against human PANC-1 cells incubated for 72 hrs by MTT assay. In kind it is functional, cell-based. The following applies: PANC-1, 72 h.
The next test concerns Calf thymus DNA. As to the kind of experiment: Binding affinity to calf thymus pUC19 DNA assessed as intercalating activity by measuring conformational change in DNA at 50 to 100 uM incubated for 30 mins by EtBr staining based agarose gel electrophoresis. In kind it is nucleic-acid assay. The following applies: Bos taurus, dose 50-100 µM.
The test system of test [4] is HCT-116. As to the kind of experiment: Cytotoxicity against human HCT-116 cells at less than 10 uM incubated for 7 to 10 days by crystal violet staining based assay. It counts as functional, cell-based. The following applies: time 7-10 day.
Test [5] deals with MIA PaCa-2. Kind of test: Cytotoxicity against human MIA PaCa-2 cells at less than 10 uM incubated for 7 to 10 days by crystal violet staining based assay. To be noted: time 7-10 day. In kind it is functional, cell-based.
Test [6] concerns PANC-1. Kind of test: Cytotoxicity against human PANC-1 cells at less than 10 uM incubated for 7 to 10 days by crystal violet staining based assay. In kind it is functional, cell-based. To be noted: time 7-10 day.
Test [7] has as its system HCT-116. As to the kind of experiment: Induction of PARylation in human HCT-116 cells at 20 uM incubated for 2 to 8 hrs by Western blotting analysis. In kind it is functional, cell-based. The following applies: time 2-8 hrs.
Test [8] relates to HCT-116. As to the kind of experiment: Cytotoxicity against human HCT-116 cells at greater than 10 uM incubated for 7 to 10 days by crystal violet staining based assay. In kind it is functional, cell-based. The following applies: time 7-10 day.
In test [9] the test system is MIA PaCa-2. As to the kind of experiment: Cytotoxicity against human MIA PaCa-2 cells at greater than 10 uM incubated for 7 to 10 days by crystal violet staining based assay. It counts as functional, cell-based. To be noted: time 7-10 day.
In test [10] the test system is PANC-1. Kind of test: Cytotoxicity against human PANC-1 cells at greater than 10 uM incubated for 7 to 10 days by crystal violet staining based assay. In kind it is functional, cell-based. The following applies: time 7-10 day.
Test [11] relates to HCT-116. Kind of test: Induction of TOP1-DNA covalent complex PARlyation in human HCT-116 cells at 1 uM measured upto 24 hrs by RADAR assay. In kind it is functional, cell-based.
Test [12] has as its system DNA topoisomerase 1/Deoxyribonucleic acid (Homo sapiens). Kind of test: Induction of TOP1-DNA covalent complex stabilization in human HCT-116 cells at 10 to 20 uM after 4 to 6 hrs by RADAR assay. In kind it is cell-based. To be noted: dose 10-20 µM, time 4-6 hrs.
Test [13] shares this test system. Kind of test: Induction of TOP1-DNA covalent complex stabilization in human HCT-116 cells at 10 to 20 uM after 2 hrs by RADAR assay. It counts as cell-based. To be noted: dose 10-20 µM.
Test [14] has the same test system. Kind of test: Induction of TOP1-DNA covalent complex degradation in human HCT-116 cells at 1 uM by RADAR assay. It counts as cell-based. To be noted: time 2-24 hrs, TDE = time-dependent effect.

For `O=C1NC(=O)c2cccc3cccc1c23`, the IC50 in the test on HCT-116 [1] amounted to 15 µM; in the test with MIA PaCa-2 [2], 18 µM; in the test on PANC-1 [3], 20 µM.
As to `CN(C)c1ccc2cc3ccc(N(C)C)cc3nc2c1`, the result with Calf thymus DNA was Active.
For `O=C1c2cccc3cccc(c23)C(=O)N1CCSc1nnc(CCn2nc(Cc3ccc(F)cc3)c3ccccc3c2=O)o1`, the figures for the IC50 in the test on HCT-116 [1], with MIA PaCa-2 [2] and in the test with PANC-1 [3] were 12.5 µM, 11 µM and 13 µM, respectively. Further, the result in the test with HCT-116 [4], in the test with MIA PaCa-2 [5] and in the test with PANC-1 [6] was Active.
As for `O=C(c1cc(Cc2n[nH]c(=O)c3ccccc23)ccc1F)N1CCN(C(=O)C2CC2)CC1` [OLAPARIB], the IC50 with HCT-116 [1] was 9 µM; with MIA PaCa-2 [2] it was 8 µM; with PANC-1 [3] it was 7 µM. The result with HCT-116 [7] was inactive.
Turning to `O=C1c2cccc3cccc(c23)C(=O)N1CCSc1nnc(CCCn2nc(Cc3ccc(F)cc3)c3ccccc3c2=O)o1`, the IC50 with HCT-116 [1], in the test on MIA PaCa-2 [2] and in the test with PANC-1 [3] was above 25 µM in each case. Also, the outcome in the test on HCT-116 [8], with MIA PaCa-2 [9] and in the test with PANC-1 [10] was Active.
Regarding `COc1cccc2c1C(=O)c1c(O)c3c(c(O)c1C2=O)C[C@@](O)(C(=O)CO)C[C@@H]3O[C@H]1C[C@H](N)[C@H](O)[C@H](C)O1`, the result with Calf thymus DNA was Active.
With `COc1ccc(Cc2nn(CCc3nnc(SCCN4C(=O)c5cccc6cccc(c56)C4=O)o3)c(=O)c3ccccc23)cc1`, the IC50 with HCT-116 [1], in the test on MIA PaCa-2 [2] and in the test on PANC-1 [3] was above 25 µM each time. For the same compound, the result in the test on HCT-116 [8], in the test with MIA PaCa-2 [9] and in the test on PANC-1 [10] was Active.
For `COc1ccc(Cc2nn(Cc3nnc(SCCN4C(=O)c5cccc6cccc(c56)C4=O)o3)c(=O)c3ccccc23)cc1`, the IC50 was 13.5 µM with HCT-116 [1], 14 µM in the test with MIA PaCa-2 [2] and 13 µM in the test on PANC-1 [3]. The outcome with HCT-116 [4], in the test on MIA PaCa-2 [5] and with PANC-1 [6] was Active.
Consider `CC[C@@]1(O)C(=O)OCc2c1cc1n(c2=O)Cc2cc3ccccc3nc2-1`, for which the outcome (with HCT-116 [11]; in test [13]) was Active. In addition, the outcome in test [12] was inactive. For the same compound, the Activity entry in test [14] is “Tde”.
On to `O=C1c2cccc3cccc(c23)C(=O)N1CCCc1nnc(CCn2nc(Cc3ccc(F)cc3)c3ccccc3c2=O)o1`, for which the IC50 with HCT-116 [1], in the test on MIA PaCa-2 [2] and in the test with PANC-1 [3] was above 25 µM throughout. Moreover, the outcome in the test with HCT-116 [8], in the test on MIA PaCa-2 [9] and in the test on PANC-1 [10] was Active.
For `COc1ccc(Cc2nn(CCCc3nnc(SCCN4C(=O)c5cccc6cccc(c56)C4=O)o3)c(=O)c3ccccc23)cc1`, the IC50 with HCT-116 [1], with MIA PaCa-2 [2] and in the test with PANC-1 [3] was above 25 µM in each case. In addition, the outcome with HCT-116 [8], in the test with MIA PaCa-2 [9] and with PANC-1 [10] was Active.
In the case of `O=C1c2cccc3cccc(c23)C(=O)N1CCSc1nnc(Cn2nc(Cc3ccccc3)c3ccccc3c2=O)o1`, the IC50 in the test on HCT-116 [1], with MIA PaCa-2 [2] and in the test with PANC-1 [3] was above 25 µM in each case. Also, the result with HCT-116 [8], in the test on MIA PaCa-2 [9] and in the test on PANC-1 [10] was Active.
Consider `O=C1c2cccc3cccc(c23)C(=O)N1CCCc1nnc(Cn2nc(Cc3ccc(F)cc3)c3ccccc3c2=O)o1`, for which the IC50 with HCT-116 [1], in the test on MIA PaCa-2 [2] and in the test with PANC-1 [3] was above 25 µM each time. Moreover, the result with HCT-116 [8], in the test with MIA PaCa-2 [9] and in the test on PANC-1 [10] was Active.
With `O=C1c2cccc3cccc(c23)C(=O)N1CCSc1nnc(CCn2nc(Cc3ccccc3)c3ccccc3c2=O)o1`, the IC50 with HCT-116 [1], with MIA PaCa-2 [2] and in the test on PANC-1 [3] was above 25 µM in each case.
As for `O=C1c2cccc3cccc(c23)C(=O)N1CCSc1nnc(CCCn2nc(Cc3ccccc3)c3ccccc3c2=O)o1`, the IC50 in the test with HCT-116 [1], in the test with MIA PaCa-2 [2] and with PANC-1 [3] was above 25 µM each time. Besides, the result in the test with HCT-116 [8], with MIA PaCa-2 [9] and with PANC-1 [10] was Active.
